In US11000033B2, “Ketone or oxime compound, and herbicide” (NISSAN CHEMICAL CORPORATION, priority 2014, dated 2021):

Assays:
Format in all cases: in vivo
[1] = tested on: transplanted rice plant; assay: Test Example 1: effect on crop, application before weed generation in submerged conditions (symbol a); details: application herbicide amount 320 g/ha
In short: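 Alluvial soil pots flooded to 4 cm water, sown with Echinochloa oryzacola, Scirpus juncoides and Monochoria vaginalis, then transplanted with 2.5 leaf stage rice seedlings; pre-emergence application. Greenhouse 25° C. to 30° C.; scored 0–5 by herbicidal ratio 3 weeks after application.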

[2] = tested on: Scirpus juncoides; assay: Test Example 2: herbicidal activity, application during weed generation in submerged conditions (symbol B); details: Table 23; application herbicide amount 320 g/ha; grade 0-5 by criteria of Test Example 1
In short: (§1)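 Visual herbicidal ratings, taken three weeks after dosing, reflect post-emergence water-surface application to seedlings at one to two leaves. Conditions: co-sown weeds in alluvial soil flooded to 4 cm, greenhouse held at 25° C. to 30° C.; compound given as water-diluted emulsion at a fixed herbicide amount.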

[3] = tested on: Monochoria vaginalis; assay: Test Example 2: herbicidal activity, application during weed generation in submerged conditions (symbol C); details: Table 23; application herbicide amount 320 g/ha; grade 0-5 by criteria of Test Example 1
In short: as §1

[4] = tested on: Echinochloa crus-galli var. crus-galli; assay: Test Example 4: herbicidal effect by soil treatment (symbol H); details: application herbicide amount 320 g/ha
In short: (§2)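 Seeds were sown in sterilized diluvial soil, covered with about 1.5 cm of soil, and the soil surface was sprayed with a water-diluted emulsion of the compound at a predetermined rate. Plants grew in a greenhouse at 25° C. to 30° C.; effects were scored visually 3 weeks after application.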

[5] = tested on: Avena fatua; assay: Test Example 4: herbicidal effect by soil treatment (symbol I); details: application herbicide amount 320 g/ha
In short: as §2

[6] = tested on: Lolium multiflorum Lam.; assay: Test Example 4: herbicidal effect by soil treatment (symbol K); details: application herbicide amount 320 g/ha
In short: as §2

[7] = tested on: Abutilon theophrasti; assay: Test Example 4: herbicidal effect by soil treatment (symbol M); details: application herbicide amount 320 g/ha
In short: as §2

[8] = tested on: soybean; assay: Test Example 4: effect on crop by soil treatment (symbol d); details: application herbicide amount 320 g/ha
In short: (§3)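 The test used sterilized diluvial soil. Seed was set down in spots and overlaid with about 1.5 cm of soil before growth in a greenhouse kept at 25° C. to 30° C.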

[9] = tested on: rice; assay: Test Example 4: effect on crop by soil treatment (symbol b); details: application herbicide amount 320 g/ha
In short: as §3

[10] = tested on: wheat; assay: Test Example 4: effect on crop by soil treatment (symbol e); details: application herbicide amount 320 g/ha
In short: as §3

[11] = tested on: Digitaria ciliaris; assay: Test Example 5: herbicidal effect by foliage application, plastic box (symbol F); details: 320 g/ha, 3 weeks after application
In short: (§4)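 Visual herbicidal score, taken three weeks post-application, of seedlings sprayed on the foliage with water-diluted emulsion at a predetermined amount; plants were 14 days old, greenhouse-raised at 25° C. to 30° C.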

[12] = tested on: Echinochloa crus-galli var. crus-galli; assay: Test Example 5: herbicidal effect by foliage application, plastic box (symbol H); details: 320 g/ha, 3 weeks after application
In short: as §4

[13] = tested on: Lolium multiflorum Lam.; assay: Test Example 5: herbicidal effect by foliage application, plastic box (symbol K); details: 320 g/ha, 3 weeks after application
In short: as §4

[14] = tested on: Amaranthus retroflexus; assay: Test Example 5: herbicidal effect by foliage application, plastic box (symbol N); details: 320 g/ha, 3 weeks after application
In short: as §4

[15] = tested on: Veronica persica; assay: Test Example 5: herbicidal effect by foliage application, plastic box (symbol R); details: 320 g/ha, 3 weeks after application
In short: as §4

[16] = tested on: corn; assay: Test Example 5: effect on crop by foliage application, plastic box (symbol c); details: 320 g/ha, 3 weeks after application
In short: (§5)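 Soil: sterilized diluvial. Container: plastic box, 21 × 13 cm, 7 cm deep. Sowing: spot-like, ~1.5 cm cover. Growth: greenhouse, 25° C. to 30° C.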

[17] = tested on: soybean; assay: Test Example 5: effect on crop by foliage application, plastic box (symbol d); details: 320 g/ha, 3 weeks after application
In short: as §5

[18] = tested on: rapeseed; assay: Test Example 5: effect on crop by foliage application, plastic box (symbol g); details: 320 g/ha, 3 weeks after application
In short: as §5

Row | Compound | Effect grade on crop, a: transplanted rice plant [1] | Herbicidal effect grade, B: Scirpus juncoides [2] | Herbicidal effect grade, C: Monochoria vaginalis [3] | H (Echinochloa crus-galli var. crus-galli) herbicidal effect grade [4] | I (Avena fatua) herbicidal effect grade [5] | K (Lolium multiflorum Lam.) herbicidal effect grade [6] | M (Abutilon theophrasti) herbicidal effect grade [7] | d (soybean) effect on crop grade [8] | b (directly sowed rice plant) effect on crop grade [9] | e (wheat) effect on crop grade [10] | F: Digitaria ciliaris, herbicidal effect grade [11] | H: Echinochloa crus-galli var. crus-galli, herbicidal effect grade [12] | K: Lolium multiflorum Lam., herbicidal effect grade [13] | N: Amaranthus retroflexus, herbicidal effect grade [14] | R: Veronica persica, herbicidal effect grade [15] | c: corn, effect on crop grade [16] | d: soybean, effect on crop grade [17] | g: rapeseed, effect on crop grade [18] | further results
1 | COCCON=C(C)CC1CC(O)=C(c2c(C)cc(C)cc2C)C1=O (stereo not drawn) [1-041] | 5 (Herbicidal ratio of 90% or more (almost completely withered)) | 0 (Herbicidal ratio of 5% or lower (almost no effect)) | 0 (Herbicidal ratio of 5% or lower (almost no effect)) | 5 (Herbicidal ratio of 90% or more (almost completely withered)) | 5 (Herbicidal ratio of 90% or more (almost completely withered)) | 5 (Herbicidal ratio of 90% or more (almost completely withered)) | 3 (Herbicidal ratio of 40% or higher and lower than 70%) | 1 (Herbicidal ratio of 5% or higher and lower than 20%) | 5 (Herbicidal ratio of 90% or more (almost completely withered)) | 4 (Herbicidal ratio of 70% or higher and lower than 90%) | 5 (Herbicidal ratio of 90% or more (almost completely withered)) | 5 (Herbicidal ratio of 90% or more (almost completely withered)) | 5 (Herbicidal ratio of 90% or more (almost completely withered)) | 3 (Herbicidal ratio of 40% or higher and lower than 70%) | 3 (Herbicidal ratio of 40% or higher and lower than 70%) | 5 (Herbicidal ratio of 90% or more (almost completely withered)) | 4 (Herbicidal ratio of 70% or higher and lower than 90%) | 4 (Herbicidal ratio of 70% or higher and lower than 90%) | –
2 | CON=C(C)CC1CC(OC(=O)COc2ccc(Cl)cc2)=C(c2c(C)cc(C)cc2C)C1=O (stereo not drawn) [1-044] | 5 (Herbicidal ratio of 90% or more (almost completely withered)) | 4 (Herbicidal ratio of 70% or higher and lower than 90%) | 3 (Herbicidal ratio of 40% or higher and lower than 70%) | 5 (Herbicidal ratio of 90% or more (almost completely withered)) | 2 (Herbicidal ratio of 20% or higher and lower than 40%) | 5 (Herbicidal ratio of 90% or more (almost completely withered)) | 5 (Herbicidal ratio of 90% or more (almost completely withered)) | 0 (Herbicidal ratio of 5% or lower (almost no effect)) | 5 (Herbicidal ratio of 90% or more (almost completely withered)) | 2 (Herbicidal ratio of 20% or higher and lower than 40%) | 5 (Herbicidal ratio of 90% or more (almost completely withered)) | 5 (Herbicidal ratio of 90% or more (almost completely withered)) | 5 (Herbicidal ratio of 90% or more (almost completely withered)) | 2 (Herbicidal ratio of 20% or higher and lower than 40%) | 0 (Herbicidal ratio of 5% or lower (almost no effect)) | 4 (Herbicidal ratio of 70% or higher and lower than 90%) | 4 (Herbicidal ratio of 70% or higher and lower than 90%) | 4 (Herbicidal ratio of 70% or higher and lower than 90%) | –
3 | CON=C(CC1CC(OC(=O)COc2ccccc2)=C(c2c(C)cc(C)cc2C)C1=O)C1CC1 (stereo not drawn) [1-063] | 5 (Herbicidal ratio of 90% or more (almost completely withered)) | 2 (Herbicidal ratio of 20% or higher and lower than 40%) | 0 (Herbicidal ratio of 5% or lower (almost no effect)) | 5 (Herbicidal ratio of 90% or more (almost completely withered)) | 3 (Herbicidal ratio of 40% or higher and lower than 70%) | 5 (Herbicidal ratio of 90% or more (almost completely withered)) | 2 (Herbicidal ratio of 20% or higher and lower than 40%) | 0 (Herbicidal ratio of 5% or lower (almost no effect)) | 5 (Herbicidal ratio of 90% or more (almost completely withered)) | 3 (Herbicidal ratio of 40% or higher and lower than 70%) | 1 (Herbicidal ratio of 5% or higher and lower than 20%) | 5 (Herbicidal ratio of 90% or more (almost completely withered)) | 5 (Herbicidal ratio of 90% or more (almost completely withered)) | 0 (Herbicidal ratio of 5% or lower (almost no effect)) | 4 (Herbicidal ratio of 70% or higher and lower than 90%) | 3 (Herbicidal ratio of 40% or higher and lower than 70%) | 3 (Herbicidal ratio of 40% or higher and lower than 70%) | 4 (Herbicidal ratio of 70% or higher and lower than 90%) | –
4 | CON=C(C)CC1CC(OC(=O)COc2ccc(F)cc2)=C(c2c(C)cc(C)cc2C)C1=O (stereo not drawn) [1-073] | 5 (Herbicidal ratio of 90% or more (almost completely withered)) | 5 (Herbicidal ratio of 90% or more (almost completely withered)) | 2 (Herbicidal ratio of 20% or higher and lower than 40%) | 5 (Herbicidal ratio of 90% or more (almost completely withered)) | 4 (Herbicidal ratio of 70% or higher and lower than 90%) | 5 (Herbicidal ratio of 90% or more (almost completely withered)) | 5 (Herbicidal ratio of 90% or more (almost completely withered)) | 0 (Herbicidal ratio of 5% or lower (almost no effect)) | 5 (Herbicidal ratio of 90% or more (almost completely withered)) | 4 (Herbicidal ratio of 70% or higher and lower than 90%) | – | – | – | – | – | – | – | – | F: Digitaria ciliaris, herbicidal effect (criteria 0-5) [11]: 5 (Herbicidal ratio of 90% or more (almost completely withered)); H: Echinochloa crus-galli var. crus-galli, herbicidal effect (criteria 0-5) [12]: 5 (Herbicidal ratio of 90% or more (almost completely withered)); K: Lolium multiflorum Lam., herbicidal effect (criteria 0-5) [13]: 5 (Herbicidal ratio of 90% or more (almost completely withered)); N: Amaranthus retroflexus, herbicidal effect (criteria 0-5) [14]: 2 (Herbicidal ratio of 20% or higher and lower than 40%); R: Veronica persica, herbicidal effect (criteria 0-5) [15]: 3 (Herbicidal ratio of 40% or higher and lower than 70%); c: corn, effect on crop (criteria 0-5) [16]: 4 (Herbicidal ratio of 70% or higher and lower than 90%); d: soybean, effect on crop (criteria 0-5) [17]: 3 (Herbicidal ratio of 40% or higher and lower than 70%); g: rapeseed, effect on crop (criteria 0-5) [18]: 4 (Herbicidal ratio of 70% or higher and lower than 90%)
